Test results from patent US9656988B2 (Pharmacyclics LLC, priority 2013, dated 2017).
Where two headings read alike, the source gives them in different places.

Target: BTK (Homo sapiens (Human), UniProt Q06187)
Assay: Btk in vitro inhibitory activity (one of Method A TR-FRET, Method B electrophoretic mobility shift, Method C radiometric filter binding)
Type: biochemical
[1] = determined using one of the methods of Example 355a, 355b and 355c, read-out: BTK IC50

Sequence of BTK (Q06187 whole entry): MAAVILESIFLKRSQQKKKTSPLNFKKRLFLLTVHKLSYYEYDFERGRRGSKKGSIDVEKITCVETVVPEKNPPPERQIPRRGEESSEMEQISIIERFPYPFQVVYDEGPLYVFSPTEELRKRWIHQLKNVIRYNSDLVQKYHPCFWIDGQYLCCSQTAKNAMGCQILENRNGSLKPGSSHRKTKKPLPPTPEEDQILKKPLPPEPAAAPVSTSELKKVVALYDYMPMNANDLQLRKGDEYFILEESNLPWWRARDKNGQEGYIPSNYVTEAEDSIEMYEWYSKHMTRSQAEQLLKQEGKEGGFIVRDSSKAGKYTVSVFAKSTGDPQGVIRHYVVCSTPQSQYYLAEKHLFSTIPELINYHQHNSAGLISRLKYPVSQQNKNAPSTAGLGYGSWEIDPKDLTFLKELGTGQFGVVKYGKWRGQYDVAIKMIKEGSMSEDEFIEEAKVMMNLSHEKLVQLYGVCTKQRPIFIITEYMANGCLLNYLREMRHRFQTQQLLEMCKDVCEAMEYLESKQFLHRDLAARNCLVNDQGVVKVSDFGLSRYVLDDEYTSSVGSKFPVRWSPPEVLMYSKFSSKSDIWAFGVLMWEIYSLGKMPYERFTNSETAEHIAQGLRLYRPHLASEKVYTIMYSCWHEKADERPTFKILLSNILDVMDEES

Compound | IC50 [1] | IC50 (read-out: Btk (IC50)) | IC50 (Btk (IC50)) | IC50
CCN(C)C(=O)N[C@@H]1CCCN(c2cnc(C(N)=O)c(Nc3ccc(C4CCN(C5CCCC5)CC4)cc3)n2)C1 [Example 297, (R)-3-(4-(1-cyclopentylpiperidin-4-yl)phenylamino)-5-(3-(3-ethyl-3-methylureido)piperidin-1-yl)pyrazine-2-carboxamide] | < 10 nM | < 10 nM |  | 
CCOC(=O)N[C@@H]1CCCN(c2cnc(C(N)=O)c(Nc3ccc(C4CCN(C5CCCC5)CC4)cc3)n2)C1 [Example 298, (R)-ethyl 1-(5-carbamoyl-6-(4-(1-cyclopentylpiperidin-4-yl)phenylamino)pyrazin-2-yl)piperidin-3-ylcarbamate] | < 10 nM | < 10 nM |  | 
NC(=O)c1ncc(N2CCC[C@@H](NC(=O)C3CC3)C2)nc1Nc1ccc(C2CCN(C3CCCC3)CC2)cc1 [Example 299, (R)-3-(4-(1-cyclopentylpiperidin-4-yl)phenylamino)-5-(3-(cyclopropanecarboxamido)piperidin-1-yl)pyrazine-2-carboxamide] | < 10 nM | < 10 nM |  | 
CS(=O)(=O)N[C@@H]1CCCN(c2cnc(C(N)=O)c(Nc3ccc(C4CCN(C5CCCC5)CC4)cc3)n2)C1 [Example 300, (R)-3-(4-(1-cyclopentylpiperidin-4-yl)phenylamino)-5-(3-(methylsulfonamido)piperidin-1-yl)pyrazine-2-carboxamide] | 10 to 100 nM |  | 10 to 100 nM | 
CCS(=O)(=O)N[C@@H]1CCCN(c2cnc(C(N)=O)c(Nc3ccc(C4CCN(C5CCCC5)CC4)cc3)n2)C1 [Example 301, (R)-3-(4-(1-cyclopentylpiperidin-4-yl)phenylamino)-5-(3-(ethylsulfonamido)piperidin-1-yl)pyrazine-2-carboxamide] | 10 to 100 nM |  |  | 
CN(C)S(=O)(=O)N[C@@H]1CCCN(c2cnc(C(N)=O)c(Nc3ccc(C4CCN(C5CCCC5)CC4)cc3)n2)C1 [Example 302, (R)-3-(4-(1-cyclopentylpiperidin-4-yl)phenylamino)-5-(3-(N,N-dimethylsulfamoylamino)piperidin-1-yl)pyrazine-2-carboxamide] | 10 to 100 nM |  |  | 
NC(=O)c1ncc(N2CCC[C@@H](NC(=O)c3ccccc3)C2)nc1Nc1ccc(C2CCN(C3CCCC3)CC2)cc1 [Example 303, (R)-5-(3-benzamidopiperidin-1-yl)-3-(4-(1-cyclopentylpiperidin-4-yl)phenylamino)pyrazine-2-carboxamide] | < 10 nM | < 10 nM |  | 
NC(=O)c1ncc(N2CCC[C@@H](NC(=O)c3cccnc3)C2)nc1Nc1ccc(C2CCN(C3CCCC3)CC2)cc1 [Example 304, (R)-3-(4-(1-cyclopentylpiperidin-4-yl)phenylamino)-5-(3-(nicotinamido)piperidin-1-yl)pyrazine-2-carboxamide] | < 10 nM | < 10 nM |  | 
NC(=O)c1ncc(N2CCC[C@@H](NC(=O)c3cncc(F)c3)C2)nc1Nc1ccc(C2CCN(C3CCCC3)CC2)cc1 [Example 305, (R)-3-(4-(1-cyclopentylpiperidin-4-yl)phenylamino)-5-(3-(5-fluoronicotinamido)piperidin-1-yl)pyrazine-2-carboxamide] | < 10 nM | < 10 nM |  | 
NC(=O)c1ncc(N2CCC[C@@H](N3Cc4ccccc4C3=O)C2)nc1Nc1ccc(C2CCN(C3CCCC3)CC2)cc1 [Example 307, (R)-3-(4-(1-cyclopentylpiperidin-4-yl)phenylamino)-5-(3-(1-oxoisoindolin-2-yl)piperidin-1-yl)pyrazine-2-carboxamide] | < 10 nM | < 10 nM |  | 
NC(=O)c1ncc(N2CCC[C@@H](NC(=O)C3CC4(CCC4)C3)C2)nc1Nc1ccc(C2CCN(C3CC3)CC2)cc1 [Example 309, 3-(4-(1-cyclopropylpiperidin-4-yl)phenylamino)-5-((3R)-3-(spiro[3.3]heptane-2-carboxamido)piperidin-1-yl)pyrazine-2-carboxamide] | 100 to 1000 nM | 100 to 1000 nM |  | 
NC(=O)c1ncc(N2CCC[C@@H](NC(=O)C3CCCC3)C2)nc1Nc1ccc(C2CCN(C3CC3)CC2)cc1 [Example 310, (R)-5-(3-(cyclopentanecarboxamido)piperidin-1-yl)-3-(4-(1-cyclopropylpiperidin-4-yl)phenylamino)pyrazine-2-carboxamide] | 10 to 100 nM | 10 to 100 nM |  | 
NC(=O)c1ncc(N2CCC[C@@H](NC(=O)c3ccc(Cl)cc3)C2)nc1Nc1ccc(C2CCN(C3CC3)CC2)cc1 [Example 311, (R)-5-(3-(4-chlorobenzamido)piperidin-1-yl)-3-(4-(1-cyclopropylpiperidin-4-yl)phenylamino)pyrazine-2-carboxamide] | < 10 nM | < 10 nM |  | 
NC(=O)c1ncc(N2CCC[C@@H](NC(=O)c3cccc(Cl)c3)C2)nc1Nc1ccc(C2CCN(C3CC3)CC2)cc1 [Example 312, (R)-5-(3-(3-chlorobenzamido)piperidin-1-yl)-3-(4-(1-cyclopropylpiperidin-4-yl)phenylamino)pyrazine-2-carboxamide] | < 10 nM | < 10 nM |  | 
NC(=O)c1ncc(N2CCC[C@@H](NC(=O)c3cncc(Cl)c3)C2)nc1Nc1ccc(C2CCN(C3CC3)CC2)cc1 [Example 313, (R)-5-(3-(5-chloronicotinamido)piperidin-1-yl)-3-(4-(1-cyclopropylpiperidin-4-yl)phenylamino)pyrazine-2-carboxamide] | < 10 nM | < 10 nM |  | 
NC(=O)c1ncc(N2CCC[C@@H](NC(=O)c3ccc(Cl)s3)C2)nc1Nc1ccc(C2CCN(C3CC3)CC2)cc1 [Example 314, (R)-5-(3-(5-chlorothiophene-2-carboxamido)piperidin-1-yl)-3-(4-(1-cyclopropylpiperidin-4-yl)phenylamino)pyrazine-2-carboxamide] | 10 to 100 nM |  |  | 
NC(=O)c1ncc(N2CCC[C@@H](NC(=O)c3cc4ccccc4s3)C2)nc1Nc1ccc(C2CCN(C3CC3)CC2)cc1 [Example 315, (R)-5-(3-(benzo[b]thiophene-2-carboxamido)piperidin-1-yl)-3-(4-(1-cyclopropylpiperidin-4-yl)phenylamino)pyrazine-2-carboxamide] | 10 to 100 nM |  |  | 10 to 100 nM
NC(=O)c1ncc(N2CCC[C@@H](NC(=O)c3cc4c(s3)CCCC4)C2)nc1Nc1ccc(C2CCN(C3CC3)CC2)cc1 [Example 316, (R)-3-(4-(1-cyclopropylpiperidin-4-yl)phenylamino)-5-(3-(4,5,6,7-tetrahydrobenzo[b]thiophene-2-carboxamido)piperidin-1-yl)pyrazine-2-carboxamide] | < 10 nM |  |  | 
NC(=O)c1ncc(N2CCC[C@@H](NC(=O)c3ccc4ccccc4c3)C2)nc1Nc1ccc(C2CCN(C3CC3)CC2)cc1 [Example 317, (R)-5-(3-(2-naphthamido)piperidin-1-yl)-3-(4-(1-cyclopropylpiperidin-4-yl)phenylamino)pyrazine-2-carboxamide] | 10 to 100 nM |  |  | 
NC(=O)c1ncc(N2CCC[C@@H](NC(=O)c3ccc(-c4ccccc4)cc3)C2)nc1Nc1ccc(C2CCN(C3CC3)CC2)cc1 [Example 318, (R)-5-(3-biphenyl-4-ylcarboxamidopiperidin-1-yl)-3-(4-(1-cyclopropylpiperidin-4-yl)phenylamino)pyrazine-2-carboxamide] | 10 to 100 nM |  |  | 
NC(=O)c1ncc(N2CCC[C@@H](NC(=O)c3ccc(-c4ccccc4)nc3)C2)nc1Nc1ccc(C2CCN(C3CC3)CC2)cc1 [Example 319, (R)-3-(4-(1-cyclopropylpiperidin-4-yl)phenylamino)-5-(3-(6-phenylnicotinamido)piperidin-1-yl)pyrazine-2-carboxamide] | < 10 nM |  |  | 
NC(=O)c1ncc(N2CCC[C@@H](NC(=O)c3ccc(F)cc3)C2)nc1Nc1ccc(C2CCN(C3CCCC3)CC2)cc1 [Example 320, (R)-3-(4-(1-cyclopentylpiperidin-4-yl)phenylamino)-5-(3-(4-fluorobenzamido)piperidin-1-yl)pyrazine-2-carboxamide] | < 10 nM | < 10 nM |  | 
CN(C(=O)N[C@@H]1CCCN(c2cnc(C(N)=O)c(Nc3ccc(F)cc3)n2)C1)c1cc(Cl)cc(C(F)(F)F)c1 [Example 322, (R)-5-(3-(3-(3-chloro-5-(trifluoromethyl)phenyl)-3-methylureido)piperidin-1-yl)-3-(4-fluorophenylamino)pyrazine-2-carboxamide] | 100 to 1000 nM | 100 to 1000 nM |  | 
CN(C(=O)N[C@@H]1CCCN(c2cnc(C(N)=O)c(Nc3ccc(C4(C#N)CC4)cc3)n2)C1)c1cc(Cl)cc(C(F)(F)F)c1 [Example 323, (R)-5-(3-(3-(3-chloro-5-(trifluoromethyl)phenyl)-3-methylureido)piperidin-1-yl)-3-(4-(1-cyanocyclopropyl)phenylamino)pyrazine-2-carboxamide] | 100 to 1000 nM | 100 to 1000 nM |  | 
CN(C(=O)N[C@@H]1CCCN(c2cnc(C(N)=O)c(Nc3ccc(C4(C(N)=O)CC4)cc3)n2)C1)c1cc(Cl)cc(C(F)(F)F)c1 [Example 324, (R)-3-(4-(1-carbamoylcyclopropyl)phenylamino)-5-(3-(3-(3-chloro-5-(trifluoromethyl)phenyl)-3-methylureido)piperidin-1-yl)pyrazine-2-carboxamide] | 10 to 100 nM | 10 to 100 nM |  | 
NC(=O)c1ncc(N2CCC[C@@H](NC(=O)c3ccc4nccn4c3)C2)nc1Nc1ccc(C2CCOCC2)cc1 [Example 325, (R)—N-(1-(5-carbamoyl-6-(4-(tetrahydro-2H-pyran-4-yl)phenylamino)pyrazin-2-yl)piperidin-3-yl)imidazo[1,2-a]pyridine-6-carboxamide] | < 10 nM | < 10 nM |  | 
CN(C)C(=O)N[C@@H]1CCCCN(c2cnc(C(N)=O)c(Nc3ccc(C4CCN(C5CCCC5)CC4)cc3)n2)C1 [Example 327, (R)-3-(4-(1-cyclopentylpiperidin-4-yl)phenylamino)-5-(3-(3,3-dimethylureido)azepan-1-yl)pyrazine-2-carboxamide] | < 10 nM | < 10 nM |  | 
NC(=O)c1ncc(N2CCCC[C@@H](NC(=O)C3CC3)C2)nc1Nc1ccc(C2CCN(C3CCCC3)CC2)cc1 [Example 328, (R)-3-(4-(1-cyclopentylpiperidin-4-yl)phenylamino)-5-(3-(cyclopropanecarboxamido)azepan-1-yl)pyrazine-2-carboxamide] | < 10 nM | < 10 nM |  | 
